Patent US10463700B2, “Use of propolis for combating the side effects of chemotherapy” (POLLENERGIE, priority 2013, dated 2019)

System: progenerating CD34+ stock cells obtained from human bone marrow
Test: Cytolysis of CD34+ progenerating stock cells after chemotherapy treatment (SYTOX green)
Type: cell-based
Settings: propolis 0 μg/ml (Control)
Experimental: The objective of the test is to evaluate the effect of the propolis on the cytolysis of progenerating CD34+ stock cells obtained from human bone marrow following the application of chemotherapy treatment (epirubicin and taxotere).
The culture medium that is used is as follows: IMDM, 15 SVF, SCF (50 ng/ml), TPO (50 ng/ml), FK (50 ng/ml).
The test protocol is described below.
On D3: thawing and seeding with 50,000 cells/ml in a flask ([…])
On D0: marking and seeding with 6,000 cells/well in a 96-well plate
Between D0 and D4: • Treatment of cells with a propolis extract (Example 1) between D0 and D3 with the following doses: 0, 0.5, 1, 4, 10 and 20 μg/ml • Treatment of cells with chemotherapy agents (epirubicin at […] and taxotere […]) between D1 and D3
On D5: Marking with 5 nM of SYTOX green, and measurement of cytolysis.
The obtained results that are presented in the table below provide the percentage of CD34+ progenerating stock cells that is cytolyzed on D5.

Row | SMILES | percentage of CD34+ progenerating stock cells that is cytolyzed on D5 (Epirubicin 4.74.10^6 M D1-D3 alone) | percentage of CD34+ progenerating stock cells that is cytolyzed on D5 (Taxotere 2.80.10^6 M D1-D3 alone)
1 | COc1cccc2c1C(=O)c1c(O)c3c(c(O)c1C2=O)C[C@@](O)(C(=O)CO)C[C@@H]3O[C@H]1C[C@H](N)[C@@H](O)[C@H](C)O1 [Epirubicin] | 53.93% | 
2 | CC(=O)O[C@@]12CO[C@@H]1C[C@H](O)[C@@]1(C)C(=O)[C@H](O)C3=C(C)[C@@H](OC(=O)[C@H](O)[C@@H](NC(=O)OC(C)(C)C)c4ccccc4)C[C@@](O)([C@@H](OC(=O)c4ccccc4)[C@H]21)C3(C)C [Taxotere] |  | 65.47%
